Here are results for four molecules from BindingDB's records for doi:10.3109/14756360903468155 (Banaras Hindu University, 2010).

The assay deals with Urease (Glycine max, UniProt Q949H4). As to the kind of experiment: Urease Inhibition Assay. The settings on record: pH 7; 37 °C. As for the experimental part: The inhibition studies of soybean urease were initiated with boric acid and boronic acids (butylboronic acid, 4-bromophenylboronic acid, and phenylboronic acid). Also, heavy metal ions (HgCl2, AgCl, and Cu(CH3COO)2) and sodium salts of mineral acids (NaF, NaCl, NaNO3, and Na2SO4) were investigated for their inhibitory effects. Stock solutions of inhibitors, except for 4-bromophenylboronicacid, were prepared in 0.05 M Tris-acetate buffer, pH 7.0, and were suitably diluted for experiments, whereas a stock solution of 4-bromophenylboronic acid was prepared in absolute ethanol and subsequently diluted in respective buffer. The activity assay was carried out at standard conditions as described earlier in the presence of varying concentrations of inhibitors. The yellow-orange colored solution was measured at 405 nm on a Unicam UV-2 spectrophotometer. The amount of NH3 liberated in the reaction mixture was estimated by calibrating Nessler's reagent with standard NH4Cl solution. One enzyme unit is defined as the amount of urease required to liberate 1 μmol of ammonia per minute under our test conditions (0.1 M urea, 0.05 M Trisacetatebuffer, pH 7.0, 37°C).
Urease, sequence (Q949H4 whole entry): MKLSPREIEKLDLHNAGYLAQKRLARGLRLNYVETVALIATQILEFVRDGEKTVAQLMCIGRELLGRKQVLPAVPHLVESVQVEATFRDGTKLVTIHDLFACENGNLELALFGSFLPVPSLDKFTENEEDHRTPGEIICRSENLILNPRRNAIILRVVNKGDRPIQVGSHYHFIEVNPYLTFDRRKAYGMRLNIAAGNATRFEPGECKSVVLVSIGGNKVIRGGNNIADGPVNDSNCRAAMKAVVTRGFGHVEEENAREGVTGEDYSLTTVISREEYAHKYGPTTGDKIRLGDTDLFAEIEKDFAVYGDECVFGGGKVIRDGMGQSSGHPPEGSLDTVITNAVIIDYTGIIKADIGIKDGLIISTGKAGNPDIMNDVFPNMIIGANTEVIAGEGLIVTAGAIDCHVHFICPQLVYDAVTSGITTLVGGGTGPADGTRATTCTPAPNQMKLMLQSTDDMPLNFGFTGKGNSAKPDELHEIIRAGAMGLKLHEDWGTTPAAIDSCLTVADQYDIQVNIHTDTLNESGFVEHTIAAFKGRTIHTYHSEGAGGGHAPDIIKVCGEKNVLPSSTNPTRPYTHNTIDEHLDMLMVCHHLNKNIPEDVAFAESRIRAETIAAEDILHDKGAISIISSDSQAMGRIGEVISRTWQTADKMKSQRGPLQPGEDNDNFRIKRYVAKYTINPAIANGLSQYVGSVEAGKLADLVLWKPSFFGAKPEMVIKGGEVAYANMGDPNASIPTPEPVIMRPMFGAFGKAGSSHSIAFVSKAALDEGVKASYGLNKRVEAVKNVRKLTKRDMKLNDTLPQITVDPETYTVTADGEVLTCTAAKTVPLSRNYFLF

As to `OB(O)c1ccc(Br)cc1` [4-bromo phenyl boronic acid], the Ki stood at 220 µM.

Consider `OB(O)c1ccccc1` [Phenylboronic acid, 22], for which the Ki was 2000 µM.

On to `OB(O)O` [Boric acid], for which the Ki was found to be 200 µM.

As for `CCCCB(O)O` [Borinic acid derivative], the Ki was 1500 µM.

As usually defined, the Ki is a dissociation constant, usually derived from enzyme kinetics or from competition with a known ligand. Low readings indicate a stronger hold on the target, high ones a looser hold on the target.
